Assay results reported in US5455249A, “Phosphorylcarbamates of rapamycin and oxime derivatives thereof” (priority 1994, dated 1995).
Several values for one entry are separate records, joined by “and”; a condition that tells them apart may be missing. Equal entries are not always repeated.

What was measured:
[1] = system: lymphocyte (thymocyte / T-cell) proliferation; assay: Comitogen-induced thymocyte proliferation procedure (LAF); format: cell-based, normal BALB/c mice; conditions: for inhibition at 0.1 µM / IC50: Mus musculus; for inhibition at 0.1 µM: T-cell, read-out: % Inhib. (percent inhibition of T-cell proliferation at 0.1 μM); for IC50: Thymocyte, thymus cells of BALB/c mice cultured 72 hours with PHA and IL-1, tritiated thymidine pulse during last six hours; for LAF (ratio) compared with rapamycin: >1 means test compound inhibits thymocyte proliferation more than rapamycin
Experimental: (§1) Immunosuppressive activity for representative compounds of this invention was evaluated in an in vitro standard pharmacological test procedure to measure lymphocyte proliferation (LAF) and in an in vivo standard pharmacological test procedure which evaluated the survival time of a pinch skin graft.
The comitogen-induced thymocyte proliferation procedure (LAF) was used as an in vitro measure of the immunosuppressive effects of representative compounds. Briefly, cells from the thymus of normal BALB/c mice are cultured for 72 hours with PHA and IL-1 and pulsed with tritiated thymidine during the last six hours. Cells are cultured with and without various concentrations of rapamycin, cyclosporin A, or test compound. Cells are harvested and incorporated radioactivity is determined. Inhibition of lymphoproliferation is assessed as percent change in counts per minute from non-drug treated controls. For each compound evaluated, rapamycin was also evaluated for the purpose of comparison. An IC50 was obtained for each test compound as well as for rapamycin. […] The results obtained are provided as an IC50 and as the percent inhibition of T-cell proliferation at 0.1 μM. The results obtained for the representative compounds of this invention were also expressed as a ratio compared with rapamycin. A positive ratio indicates immunosuppressive activity. […] Calculation of the ratio is shown below. [formula]

[2] = system: pinch skin graft; assay: Pinch skin graft survival time; format: in vivo, male BALB/c donors, male C3H(H-2K) recipients; conditions: 4 mg/kg, intraperitoneally or orally; untreated controls rejected within 6-7 days
Experimental: as §1
Representative compounds of this invention were also evaluated in an in vivo test procedure designed to determine the survival time of pinch skin graft from male BALB/c donors transplanted to male C3 H(H-2K) recipients. The method is adapted from Billingham R. E. and Medawar P. B., J. Exp. Biol. 28:385-402, (1951 ). Briefly, a pinch skin graft from the donor was grafted on the dorsum of the recipient as a allograft, and an isograft was used as control in the same region. The recipients were treated with either varying concentrations of test compounds intraperitoneally or orally. Rapamycin was used as a test control. Untreated recipients serve as rejection control. The graft was monitored daily and observations were recorded until the graft became dry and formed a blackened scab. This was considered as the rejection day. The mean graft survival time (number of days±S.D.) of the drug treatment group was compared with the control group. […] Results are expressed as the mean survival time in days. Untreated (control) pinch skin grafts are usually rejected within 6-7 days. The results shown in Table 1 are based on a dose of 4 mg/kg of test compound. A survival time of 12.0 ±1.7 days was obtained for rapamycin at 4 mg/kg.

[3] = system: formation of IgE-like antibodies; conditions: in vivo; cited from earlier work
[4] = system: Candida albicans; conditions: in vitro and in vivo; cited from earlier work
[5] = alone or in combination with picibanil; cited from earlier work
[6] = system: adjuvant arthritis model, a model for rheumatoid arthritis; conditions: in vivo; cited from earlier work
[7] = system: experimental allergic encephalomyelitis model, a model for multiple sclerosis; conditions: in vivo; cited from earlier work

Compound	inhibition at 0.1 µM [1]	IC50 [1]	LAF (ratio) compared with rapamycin [1]	Skin Graft mean survival time (days ± SD) [2]	inhibition of the formation of IgE-like antibodies [3]	antifungal activity [4]	antitumor activity [5]	effect in the adjuvant arthritis model [6]	effect in the experimental allergic encephalomyelitis model [7]
CCOP(=O)(NC(=O)O[C@@H]1/C(C)=C/[C@@H](C)C(=O)C[C@@H]([C@H](C)C[C@@H]2CC[C@@H](OC(=O)NP(=O)(OCC)OCC)[C@H](OC)C2)OC(=O)[C@@H]2CCCCN2C(=O)C(=O)[C@]2(O)O[C@@H](CC[C@H]2C)C[C@H](OC)/C(C)=C/C=C/C=C/[C@@H](C)C[C@@H](C)C(=O)[C@@H]1OC)OCC [Example 1, Rapamycin 31,42-diester with (diethoxyphosphoryl)carbamic acid]	72%	90.9 nM	0.04	7.2 ± 0.4 days	–	–	–	–	–
CCOP(=O)(NC(=O)O[C@@H]1CC[C@@H](C[C@@H](C)[C@@H]2CC(=O)[C@H](C)/C=C(\C)[C@@H](O)[C@@H](OC)C(=O)[C@H](C)C[C@H](C)/C=C/C=C/C=C(\C)[C@@H](OC)C[C@@H]3CC[C@@H](C)[C@@](O)(O3)C(=O)C(=O)N3CCCC[C@H]3C(=O)O2)C[C@H]1OC)OCC [Example 2, Rapamycin 42-ester with (diethoxyphosphoryl)carbamic acid]	95%	10 nM	0.44	10.2 ± 0.4 days and 10.0 ± 0.6 days	–	–	–	–	–
CCOP(=O)(NC(=O)O[C@@H]1CC[C@@H](C[C@@H](C)[C@@H]2C/C(=N\OC)[C@H](C)/C=C(\C)[C@@H](O)[C@@H](OC)C(=O)[C@H](C)C[C@H](C)/C=C/C=C/C=C(\C)[C@@H](OC)C[C@@H]3CC[C@@H](C)[C@@](O)(O3)C(=O)C(=O)N3CCCC[C@H]3C(=O)O2)C[C@H]1OC)OCC [Example 3, Rapamycin 42-ester with (diethoxyphosphoryl)carbamic acid (E)-27-O-(methyl)oxime]	51%	99 nM	0.05	–	–	–	–	–	–
CCOP(=O)(NC(=O)O[C@@H]1CC[C@@H](C[C@@H](C)[C@@H]2C/C(=N/OC)[C@H](C)/C=C(\C)[C@@H](O)[C@@H](OC)C(=O)[C@H](C)C[C@H](C)/C=C/C=C/C=C(\C)[C@@H](OC)C[C@@H]3CC[C@@H](C)[C@@](O)(O3)C(=O)C(=O)N3CCCC[C@H]3C(=O)O2)C[C@H]1OC)OCC [Example 4, Rapamycin 42-ester with (diethoxyphosphoryl)carbamic acid (Z)-27-O-(methyl)oxime]	82%	41.9 nM	0.01	–	–	–	–	–	–
CO[C@H]1C[C@@H]2CC[C@@H](C)[C@@](O)(O2)C(=O)C(=O)N2CCCC[C@H]2C(=O)O[C@H]([C@H](C)C[C@@H]2CC[C@@H](O)[C@H](OC)C2)CC(=O)[C@H](C)/C=C(\C)[C@@H](O)[C@@H](OC)C(=O)[C@H](C)C[C@H](C)/C=C/C=C/C=C/1C [rapamycin]	–	0.4 to 5.1 nM	–	12.0 ± 1.7 days	effectively inhibited the formation of IgE-like antibodies	antifungal activity, particularly against Candida albicans, both in vitro and in vivo	antitumor activity	effective	effective
